Results from patent publication EP4563146A1 (IRBM S.P.A., priority 2023, dated 2025).
Read-outs that look alike come from different tables or passages of the source.

Tests used:
[1] = molecular target: T1, West Nile Virus (WNV) NS2B-NS3 protease (West Nile virus, UniProt Q9Q6P4); assay: WNV protease inhibition assay; format: biochemical; details: Table 4; letter codes for IC50
T1 construct: NS2B1423-1470); purchased R&D 2907-SE-020
Source text: WNV protease inhibition assay

ZIKV replicon = assay: ZIKV replication inhibition assay (NanoLuc replicon in Vero cells); details: Zika virus, Vero, 72 h
[2] = read-out: ZIKA Cell_Nanoluc, Vero cells with stable ZIKV replicon, 72 h, Nano-Glo readout

T1 sequence (Q9Q6P4 1423-1470): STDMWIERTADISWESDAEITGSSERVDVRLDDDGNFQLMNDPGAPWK
T1 sequence (Q9Q6P4 1506-1689): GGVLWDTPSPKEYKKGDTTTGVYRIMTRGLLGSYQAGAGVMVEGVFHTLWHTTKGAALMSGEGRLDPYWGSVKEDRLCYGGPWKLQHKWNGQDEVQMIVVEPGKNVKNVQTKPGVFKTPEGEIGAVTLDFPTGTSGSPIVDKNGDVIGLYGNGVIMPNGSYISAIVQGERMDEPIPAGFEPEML

Row | Compound | EC50 (ZIKV replicon; [2]) | EC50 (ZIKV replicon; read-out: ZIKA Cell_Nanoluc) | also measured
1 | CN1c2ccccc2CCC1C[n+]1cc([N-]C(=O)Nc2ccnc(C(F)(F)F)c2)on1 (racemic) [Example 178, rac-(3-((1-Methyl-1,2,3,4-tetrahydroquinolin-2-yl)methyl)-1,2,3-oxadiazol-3-ium-5-yl)((2-(trifluoromethyl)pyridin-4-yl)carbamoyl)amide] | 100 to 1000 nM |  | IC50 [1]: 100 to 1000 nM
2 | COC(=O)c1ccc(C[n+]2cc([N-]C(=O)Nc3cc(NC(=O)Cc4ccccc4)cc(C(F)(F)F)c3)on2)nc1 [Example 113, (3-((5-(Methoxycarbonyl)pyridin-2-yl)methyl)-1,2,3-oxadiazol-3-ium-5-yl)((3-(2-phenylacetamido)-5-(trifluoromethyl)phenyl)carbamoyl)amide] | 1000 to 20000 nM |  | 
3 | NCc1ccccc1C[n+]1cc([N-]C(=O)Nc2cc(NC(=O)Cc3ccccc3)cc(C(F)(F)F)c2)on1 [Example 114, (3-(2-(Aminomethyl)benzyl)-1,2,3-oxadiazol-3-ium-5-yl)((3-(2-phenylacetamido)-5-(trifluoromethyl)phenyl)carbamoyl)amide] | 1000 to 20000 nM |  | 
4 | O=C(Cc1ccccc1)Nc1cc(NC(=O)[N-]c2c[n+](CC3CNCCCO3)no2)cc(C(F)(F)F)c1 (stereo not shown) [Example 115, (3-((1,4-oxazepan-2-yl)methyl)-1,2,3-oxadiazol-3-ium-5-yl)((3-(2-phenylacetamido)-5-(trifluoromethyl)phenyl)carbamoyl)amide] | 1000 to 20000 nM |  | 
5 | O=C(Cc1ccccc1)Nc1cc(NC(=O)[N-]c2c[n+](Cc3ccc(CO)cn3)no2)cc(C(F)(F)F)c1 [Example 116, (3-((5-(Hydroxymethyl)pyridin-2-yl)methyl)-1,2,3-oxadiazol-3-ium-5-yl)((3-(2-phenylacetamido)-5-(trifluoromethyl)phenyl)carbamoyl)amide] | 1000 to 20000 nM |  | 
6 | CN1CCCC(C[n+]2cc([N-]C(=O)Nc3cc(NC(=O)Cc4ccccc4)cc(C(F)(F)F)c3)on2)C1 (stereo not shown) [Example 117, (3-((1-Methylpiperidin-3-yl)methyl)-1,2,3-oxadiazol-3-ium-5-yl)((3-(2-phenylacetamido)-5-(trifluoromethyl)phenyl)carbamoyl)amide] | 1000 to 20000 nM |  | 
7 | NC1CC(C[n+]2cc([N-]C(=O)Nc3cc(NC(=O)Cc4ccccc4)cc(C(F)(F)F)c3)on2)C1 (stereo not shown) [Example 118, (3-((3-Aminocyclobutyl)methyl)-1,2,3-oxadiazol-3-ium-5-yl)((3-(2-phenylacetamido)-5-(trifluoromethyl)phenyl)carbamoyl)amide] | 1000 to 20000 nM |  | 
8 | O=C(Cc1ccccc1)Nc1cc(NC(=O)[N-]c2c[n+](CC3CCNCC3)no2)cc(C(F)(F)F)c1 [Example 120] |  | > 20000 nM | 
9 | O=C([N-]c1c[n+](Cc2ccccn2)no1)Nc1cc(N2CC(c3ccccc3)CC2=O)cc(C(F)(F)F)c1 (stereo not shown) [Example 122, ((3-(2-Oxo-4-phenylpyrrolidin-1-yl)-5-(trifluoromethyl)phenyl)carbamoyl)(3-(pyridin-2-ylmethyl)-1,2,3-oxadiazol-3-ium-5-yl)amide] | 1000 to 20000 nM |  | 
10 | O=C(Cc1ccc(=O)[nH]c1)Nc1cc(NC(=O)[N-]c2c[n+](Cc3ccccn3)no2)cc(C(F)(F)F)c1 [Example 123, ((3-(2-(6-Oxo-1,6-dihydropyridin-3-yl)acetamido)-5-(trifluoromethyl)phenyl)-carbamoyl)(3-(pyridin-2-ylmethyl)-1,2,3-oxadiazol-3-ium-5-yl)amide] | > 20000 nM |  | 
11 | O=C(Cc1ccc2nc[nH]c2c1)Nc1cc(NC(=O)[N-]c2c[n+](Cc3ccccn3)no2)cc(C(F)(F)F)c1 [Example 124, ((3-(2-(1H-Benzo[d]imidazol-6-yl)acetamido)-5-(trifluoromethyl)phenyl)carbamoyl)(3-(pyridin-2-ylmethyl)-1,2,3-oxadiazol-3-ium-5-yl)amide] | > 20000 nM |  | 
12 | O=C(Cc1ccccc1)Nc1cc(NC(=O)[N-]c2c[n+](CC3CCCCN3)no2)cc(C(F)(F)F)c1 (stereo not shown) [Example 125, ((3-(2-Phenylacetamido)-5-(trifluoromethyl)-phenyl)carbamoyl)(3-(piperidin-2-ylmethyl)-1,2,3-oxadiazol-3-ium-5-yl)amide] | 1000 to 20000 nM |  | 
13 | O=C(Cc1cccc2cn[nH]c12)Nc1cc(NC(=O)[N-]c2c[n+](Cc3ccccn3)no2)cc(C(F)(F)F)c1 [Example 126, ((3-(2-(1H-Indazol-7-yl)acetamido)-5-(trifluoromethyl)phenyl)carbamoyl)(3-(pyridin-2-ylmethyl)-1,2,3-oxadiazol-3-ium-5-yl)amide] | > 20000 nM |  | 
14 | CN1CCCCC1C[n+]1cc([N-]C(=O)Nc2cc(NC(=O)Cc3ccccc3)cc(C3CC3)c2)on1 (stereo not shown) [Example 127] |  | 1000 to 20000 nM | 
15 | COC(=O)c1ccc(C[n+]2cc([N-]C(=O)Nc3cc(NC(=O)Cc4ccccc4)cc(C4CC4)c3)on2)nc1 [Example 128, ((3-Cyclopropyl-5-(2-phenylacetamido)phenyl)-carbamoyl)(3-((5-(methoxycarbonyl)pyridin-2-yl)methyl)-1,2,3-oxadiazol-3-ium-5-yl)amide] | 1000 to 20000 nM |  | 
16 | O=C(Cc1ccccc1)Nc1cc(NC(=O)[N-]c2c[n+](Cc3ccc(CO)cn3)no2)cc(C2CC2)c1 [Example 129, ((3-Cyclopropyl-5-(2-phenylacetamido)phenyl)-carbamoyl)(3-((5-(hydroxymethyl)pyridin-2-yl)methyl)-1,2,3-oxadiazol-3-ium-5-yl)amide] | 1000 to 20000 nM |  | 
17 | C[C@@H]1C[C@H]1c1cc(NC(=O)Cc2ccccc2)cc(NC(=O)[N-]c2c[n+](Cc3ccccn3)no2)c1 [Example 130, ((3-((1R,2R)-2-Methylcyclopropyl)-5-(2-phenylacetamido)phenyl)-carbamoyl)(3-(pyridin-2-ylmethyl)-1,2,3-oxadiazol-3-ium-5-yl)amide] | 1000 to 20000 nM |  | 
18 | N[C@H]1CC[C@@H](C[n+]2cc([N-]C(=O)Nc3cc(N4CCC(c5ccccc5)C4=O)cc(C(F)(F)F)c3)on2)CC1 (stereo partly drawn) [Example 131, (3-(((1S,4S)-4-Aminocyclohexyl)methyl)-1,2,3-oxadiazol-3-ium-5-yl)((3-(2-oxo-3-phenylpyrrolidin-1-yl)-5-(trifluoromethyl)-phenyl)carbamoyl)amide] |  | 1000 to 20000 nM | 
19 | N[C@H]1CC[C@H](C[n+]2cc([N-]C(=O)Nc3cc(N4CCC(c5ccccc5)C4=O)cc(C(F)(F)F)c3)on2)CC1 (stereo partly drawn) [Example 132, (3-(((1R,4R)-4-Aminocyclohexyl)methyl)-1,2,3-oxadiazol-3-ium-5-yl)((3-(2-oxo-3-phenylpyrrolidin-1-yl)-5-(trifluoromethyl)-phenyl)carbamoyl)amide] |  | > 20000 nM | 
20 | NC[C@H]1CC[C@@H](C[n+]2cc([N-]C(=O)Nc3cc(N4CCC(c5ccccc5)C4=O)cc(C(F)(F)F)c3)on2)CC1 (stereo partly drawn) [Example 133, (3-(((1S,4S)-4-(Aminomethyl)cyclohexyl)-methyl)-1,2,3-oxadiazol-3-ium-5-yl)((3-(2-oxo-3-phenylpyrrolidin-1-yl)-5-(trifluoromethyl)-phenyl)carbamoyl)amide] |  | 1000 to 20000 nM | 
21 | O=C(Cc1ccccc1)Nc1cc(NC(=O)[N-]c2c[n+](CC3CC(NCc4ccc(O)cn4)C3)no2)cc(C(F)(F)F)c1 (stereo not shown) [Example 134, (3-((3-(((5-Hydroxypyridin-2-yl)methyl)amino)-cyclobutyl)methyl)-1,2,3-oxadiazol-3-ium-5-yl)((3-(2-phenylacetamido)-5-(trifluoromethyl)-phenyl)carbamoyl)amide] | > 20000 nM |  | 
22 | O=C([N-]c1c[n+](C[C@H]2CC[C@@H](NCC(F)(F)F)CC2)no1)Nc1cc(N2CCC(c3ccccc3)C2=O)cc(C(F)(F)F)c1 (stereo partly shown) [Example 136, ((3-(2-Oxo-3-phenylpyrrolidin-1-yl)-5-(trifluoromethyl)phenyl)carbamoyl)(3-(((1s,4s)-4-((2,2,2-trifluoroethyl)amino)cyclohexyl)methyl)-1,2,3-oxadiazol-3-ium-5-yl)amide] |  | 100 to 1000 nM | 
23 | O=C([N-]c1c[n+](C[C@H]2CC[C@H](NCC(F)(F)F)CC2)no1)Nc1cc(N2CCC(c3ccccc3)C2=O)cc(C(F)(F)F)c1 (stereo partly drawn) [Example 137, ((3-(2-Oxo-3-phenylpyrrolidin-1-yl)-5-(trifluoromethyl)phenyl)carbamoyl)(3-(((1R,4R)-4-((2,2,2-trifluoroethyl)amino)-cyclohexyl)methyl)-1,2,3-oxadiazol-3-ium-5-yl)amide] |  | 100 to 1000 nM | 
24 | CCOC(=O)CN1CCC(C[n+]2cc([N-]C(=O)Nc3cc(NC(=O)Cc4ccccc4)cc(C(F)(F)F)c3)on2)CC1 [Example 140, (3-((1-(2-Ethoxy-2-oxoethyl)piperidin-4-yl)methyl)-1,2,3-oxadiazol-3-ium-5-yl)((3-(2-phenylacetamido)-5-(trifluoromethyl)phenyl)-carbamoyl)amide] | 100 to 1000 nM |  | 
25 | O=C(Cc1ccccc1)Nc1cc(NC(=O)[N-]c2c[n+](CC3CCN(CCO)CC3)no2)cc(C(F)(F)F)c1 [Example 141, (3-((1-(2-Hydroxyethyl)piperidin-4-yl)methyl)-1,2,3-oxadiazol-3-ium-5-yl)((3-(2-phenylacetamido)-5-(trifluoromethyl)phenyl)-carbamoyl)amide] | 1000 to 20000 nM |  | 
26 | O=C([N-]c1c[n+](C[C@H]2CC[C@H](NC(=O)C(F)(F)F)CC2)no1)Nc1cc(N2CC[C@H](c3ccccc3)C2=O)cc(C(F)(F)F)c1 [Example 145, ((3-((R)-2-Oxo-3-phenylpyrrolidin-1-yl)-5-(trifluoromethyl)phenyl)carbamoyl)(3-(((1R,4R)-4-(2,2,2-trifluoroacetamido)cyclohexyl)methyl)-1,2,3-oxadiazol-3-ium-5-yl)amide] |  | 1000 to 20000 nM | 
27 | CN(CC(F)(F)F)[C@H]1CC[C@H](C[n+]2cc([N-]C(=O)Nc3cc(N4CC[C@H](c5ccccc5)C4=O)cc(C(F)(F)F)c3)on2)CC1 [Example 146, (3-(((1R,4R)-4-(Methyl(2,2,2-trifluoroethyl)-amino)cyclohexyl)methyl)-1,2,3-oxadiazol-3-ium-5-yl)((3-((R)-2-oxo-3-phenylpyrrolidin-1-yl)-5-(trifluoromethyl)phenyl)carbamoyl)amide] |  | 100 to 1000 nM | 
